Measured values reported in patent US10543198B2 (Celgene Quanticel Research, Inc., priority 2014, dated 2020).

Tests used:
[1] = tested on: THP-1 (AML) cells; experiment: LSD1 CD11b Cellular Assay (flow cytometry); type: cell-based; details: CD11b expression in THP-1 cells, 4 days incubation
Procedure: To analyze LSD1 inhibitor efficacy in cells, a CD11b flow cytometry assay was performed. LSD1 inhibition induces CD11b expression in THP-1 (AML) cells which can be measured by flow cytometry. […] LSD1 test compounds were serially diluted in DMSO. The dilutions were added to each well accordingly to a final concentration of 0.2% DMSO. The cells were incubated at 37 degrees Celsius in 5% CO2 for 4 days. 250 μL of each well was transferred to a well in a 96 well round bottom plate. The plate was centrifuged at 1200 rpm at 4 degrees Celsius in a Beckman Coulter Alegra 6KR centrifuge for 5 minutes. The media was removed leaving the cells at the bottom of the wells. The cells were washed in 100 μL cold HBSS (Hank's Balanced Salt Solution) plus 2% BSA (Bovine Serum Albumin) solution and centrifuged at 1200 rpm at 4 degrees Celsius for 5 minutes. The wash was removed. […] The cells were centrifuged and washed two times in 100 μl HBSS plus 2% BSA. After the final spin the cells were resuspended in 100 μL HBSS plus 2% BSA containing 1 ug/mL DAPI (4′,6-diamidino-2-phenylindole). The cells were then analyzed by flow cytometry in a BD FACSAria machine. Cells were analyzed for CD11b expression. The percent of CD11b expressing cells for each inhibitor concentration was used to determine an IC50 curve for each compound analyzed.

[2] = molecular target: full-length human LSD1 (Homo sapiens (Human), UniProt O60341); experiment: In Vitro Enzyme Inhibition Assay - LSD-1 (TR-FRET); type: biochemical; details: 0.1 nM LSD1, H3K4me1-biotin peptide
Procedure: This assay determines the ability of a test compound to inhibit LSD1 demethylase activity.
The enzymatic assay of LSD1 activity is based on Time Resolved-Fluorescence Resonance Energy Transfer (TR-FRET) detection.
The ability of the compounds disclosed herein to inhibit LSD1 activity was quantified and the respective IC50 value was determined.

Compound	IC50 [1] [nM]	IC50 [2] [nM]
4-[5-(4-methylphenyl)-1-[[(2R)-morpholin-2-yl]methyl]pyrrolo[3,2-b]pyridin-6-yl]benzonitrile [Example 48]	> 10000	
Cc1ccc(-c2cnc(NCC3(F)CCNC3)nc2-c2ccc(C#N)cc2)cc1 (racemic) [Example 28, (±)-4-(2-{[(3-fluoropyrrolidin-3-yl)methyl]amino}-5-(4-methylphenyl)pyrimidin-4-yl)benzonitrile]		< 100
Cc1ccc(-c2cnc(NC3CCCNC3)nc2-c2ccc(C#N)cc2)cc1 (racemic) [Example 29, (±)-4-[5-(4-methylphenyl)-2-[(piperidin-3-yl)amino]pyrimidin-4-yl]benzonitrile]		< 100
Cc1ccc(-c2nc3ccn(C[C@@H]4CCNC4)c3cc2-c2ccc(C#N)cc2)cc1 [Example 1, 4-[5-(4-methylphenyl)-1-[[(3R)-pyrrolidin-3-yl]methyl]pyrrolo[3,2-b]pyridin-6-yl]benzonitrile]		< 100
N#Cc1ccc(-c2cc3c(ccn3C[C@@H]3CCNC3)nc2Cl)cc1 [Example 2, 4-[5-chloro-1-[[(3R)-pyrrolidin-3-yl]methyl]pyrrolo[3,2-b]pyridin-6-yl]benzonitrile]		100 to 1000
Cc1ccc(-c2nc3ccn(C[C@H]4CCNC4)c3cc2-c2ccc(C#N)cc2)cc1 [Example 3, 4-[5-(4-methylphenyl)-1-[[(3S)-pyrrolidin-3-yl]methyl]pyrrolo[3,2-b]pyridin-6-yl]benzonitrile]		< 100
N#Cc1ccc(-c2cc3c(ccn3C[C@H]3CCNC3)nc2-c2ccc(F)cc2)cc1 [Example 5, 4-[5-(4-fluorophenyl)-1-[[(3S)-pyrrolidin-3-yl]methyl]pyrrolo[3,2-b]pyridin-6-yl]benzonitrile]		< 100
N#Cc1ccc(-c2cc3c(ccn3C[C@H]3CCNC3)nc2N2CCOCC2)cc1 [Example 7, 4-[5-morpholin-4-yl-1-[[(3S)-pyrrolidin-3-yl]methyl]pyrrolo[3,2-b]pyridin-6-yl]benzonitrile]		< 100
Cc1ccc(-c2nc3ccn(C[C@H]4CNCCO4)c3cc2-c2ccc(C#N)cc2)cc1 [Example 10, 4-[5-(4-methylphenyl)-1-[[(2R)-morpholin-2-yl]methyl]pyrrolo[3,2-b]pyridin-6-yl]benzonitrile]		< 100
N#Cc1ccc(-c2cc3c(ccn3C[C@H]3CNCCO3)nc2-c2ccc(F)cc2)cc1 [Example 11, 4-[5-(4-fluorophenyl)-1-[[(2R)-morpholin-2-yl]methyl]pyrrolo[3,2-b]pyridin-6-yl]benzonitrile]		< 100
Cc1ccc(-c2nc3ccn(CCCN)c3cc2-c2ccc(C#N)cc2)cc1 [Example 12, 4-[1-(3-aminopropyl)-5-(4-methylphenyl)pyrrolo[3,2-b]pyridine-6-yl]benzonitrile]		< 100
Cc1ccc(-c2nc3cnn(CC4CCNC4)c3cc2-c2ccc(C#N)cc2)cc1 (centres unmarked) [Example 13, 4-[5-(4-methylphenyl)-1-(pyrrolidin-3-ylmethyl)pyrazolo[4,3-b]pyridin-6-yl]benzonitrile]		< 100
Cc1ccc(-c2nc3cnn(CC4CCNCC4)c3cc2-c2ccc(C#N)cc2)cc1 [Example 14, 4-[5-(4-methylphenyl)-1-(piperidin-4-ylmethyl)pyrazolo[4,3-b]pyridin-6-yl]benzonitrile]		< 100
Cc1ccc(-c2nc3cnn(C[C@H]4[C@@H]5CNC[C@@H]54)c3cc2-c2ccc(C#N)cc2)cc1 [Example 15, 4-[1-[[(1S,5R)-3-azabicyclo[3.1.0]hexan-6-yl]methyl]-5-(4-methylphenyl)pyrazolo[4,3-b]pyridin-6-yl]benzonitrile]		< 100
Cc1ccc(-c2cnc(NC[C@H]3CCNC3)nc2-c2ccc(C#N)cc2)cc1 [Example 16, 4-[5-(4-methylphenyl)-2-{[(3S)-pyrrolidin-3-ylmethyl]amino}pyrimidin-4-yl]benzonitrile]		< 100
N#Cc1ccc(-c2nc(NC[C@H]3CCNC3)ncc2-c2ccc(F)cc2)cc1 [Example 18, 4-[5-(4-fluorophenyl)-2-{[(3S)-pyrrolidin-3-ylmethyl]amino}pyrimidin-4-yl]benzonitrile]		< 100
N#Cc1ccc(-c2nc(NC[C@H]3CCNC3)ncc2-c2ccc(Cl)cc2)cc1 [Example 19, 4-[5-(4-chlorophenyl)-2-{[(3S)-pyrrolidin-3-ylmethyl]amino}pyrimidin-4-yl]benzonitrile]		< 100
Cc1ccc(-c2cnc(OC[C@@H]3CCNC3)nc2-c2ccc(C#N)cc2)cc1 [Example 20, 4-[5-(4-methylphenyl)-2-[(3R)-pyrrolidin-3-ylmethoxy]pyrimidin-4-yl]benzonitrile]		< 100

Compound	IC50 [1] [nM]	IC50 [2] [nM]
Cc1ccc(-c2cnc(N3C[C@H]4CNC[C@H]4C3)nc2-c2ccc(C#N)cc2)cc1 [Example 21, 4-{2-[(3aR,6aS)-octahydropyrrolo[3,4-c]pyrrol-2-yl]-5-(4-methylphenyl)pyrimidin-4-yl}benzonitrile]		< 100
Cc1ccc(-c2cnc(N3CCC4CNCC4C3)nc2-c2ccc(C#N)cc2)cc1 (centres unmarked) [Example 22, 4-[5-(4-methylphenyl)-2-{octahydro-1H-pyrrolo[3,4-c]pyridin-5-yl}pyrimidin-4-yl]benzonitrile]		< 100
Cc1ccc(-c2cnc(N3CC[C@@H]4CNC[C@@H]4CC3)nc2-c2ccc(C#N)cc2)cc1 [Example 23, 4-{2-[(3aR,8aS)-decahydropyrrolo[3,4-d]azepin-6-yl]-5-(4-methylphenyl)pyrimidin-4-yl}benzonitrile]		< 100
N#Cc1ccc(-c2nc(N3CC[C@@H]4CNC[C@@H]4CC3)ncc2-c2ccc(F)cc2)cc1 [Example 24, 4-{2-[(3aR,8aS)-decahydropyrrolo[3,4-d]azepin-6-yl]-5-(4-fluorophenyl)pyrimidin-4-yl}benzonitrile]		< 100
N#Cc1ccc(-c2nc(NC[C@H]3CCNC3)ncc2-c2ccc(C(F)(F)F)cc2)cc1 [Example 25, 4-(2-{[(3S)-pyrrolidin-3-ylmethyl]amino}-5-[4-(trifluoromethyl)phenyl]pyrimidin-4-yl)benzonitrile]		< 100
N#Cc1ccc(-c2nc(NC[C@H]3CCNC3)ncc2C#CC2CC2)cc1 [Example 26, 4-[5-(2-cyclopropylethynyl)-2-{[(3S)-pyrrolidin-3-ylmethyl]amino}pyrimidin-4-yl]benzonitrile]		< 100
Cc1ccc(-c2cnc(NC3CCNCC3)nc2-c2ccc(C#N)cc2)cc1 [Example 30, 4-[5-(4-methylphenyl)-2-[(piperidin-4-yl)amino]pyrimidin-4-yl]benzonitrile]		< 100
Cc1ccc(-c2cnc(NCC3CCNCC3)nc2-c2ccc(C#N)cc2)cc1 [Example 32, 4-[5-(4-methylphenyl)-2-[(piperidin-4-ylmethyl)amino]pyrimidin-4-yl]benzonitrile]		< 100
Cc1ccc(-c2cnc(N3CCC4(CCNC4)C3)nc2-c2ccc(C#N)cc2)cc1 (centres unmarked) [Example 35, 4-(2-{2,7-diazaspiro[4.4]nonan-2-yl}-5-(4-methylphenyl)pyrimidin-4-yl)benzonitrile]		< 100
Cc1ccc(-c2cnc(N3CCC4(CCNCC4)C3)nc2-c2ccc(C#N)cc2)cc1 [Example 36, 4-(2-{2,8-diazaspiro[4.5]decan-2-yl}-5-(4-methylphenyl)pyrimidin-4-yl)benzonitrile]		< 100
Cc1ccc(-c2cnc(N3CCC4(CCNC4)CC3)nc2-c2ccc(C#N)cc2)cc1 [Example 39, 4-(2-{2,8-diazaspiro[4.5]decan-8-yl}-5-(4-methylphenyl)pyrimidin-4-yl)benzonitrile]		< 100
Cc1ccc(-c2cnc(N3CCC4(CCCN4)CC3)nc2-c2ccc(C#N)cc2)cc1 [Example 40, 4-(2-{1,8-diazaspiro[4.5]decan-8-yl}-5-(4-methylphenyl)pyrimidin-4-yl)benzonitrile]		< 100
Cc1ccc(-c2cc(NCC3CCNC3)nn2-c2ccc(C#N)cc2)cc1 (centres unmarked) [Example 43, 4-[5-(4-methylphenyl)-3-(pyrrolidin-3-ylmethylamino)pyrazol-1-yl]benzonitrile]		< 100
Cc1ccc(-c2cc(NC[C@H]3CCNC3)nn2-c2ccc(C#N)cc2)cc1 [Example 44, 4-[5-(4-methylphenyl)-3-[[(3S)-pyrrolidin-3-yl]methylamino]pyrazol-1-yl]benzonitrile]		< 100
Cc1ccc(-c2cc(NC[C@@H]3CCNC3)nn2-c2ccc(C#N)cc2)cc1 [Example 45, 4-[5-(4-methylphenyl)-3-[[(3R)-pyrrolidin-3-yl]methylamino]pyrazol-1-yl]benzonitrile]		< 100
Cc1ccc(-c2cc(NCC3CCNCC3)nn2-c2ccc(C#N)cc2)cc1 [Example 46, 4-[5-(4-methylphenyl)-3-(piperidin-4-ylmethylamino)pyrazol-1-yl]benzonitrile]		< 100
Cc1ccc(-c2cc(NC[C@H]3[C@@H]4CNC[C@@H]43)nn2-c2ccc(C#N)cc2)cc1 [Example 47, 4-[3-[[(1S,5R)-3-azabicyclo[3.1.0]hexan-6-yl]methylamino]-5-(4-methylphenyl)pyrazol-1-yl]benzonitrile]		< 100
